Results on 2 molecules are retold here after patent US20100016731A1, “Hemodynamic Detection of Circulatory Anomalies” (Cardiox Corporation, priority 2008, published 2010).

Where a name gives a salt, the structure may show the parent alone.

For series [1] the following is noted: 1 day. The text has this:
However, due to the ratiometric form of Eq. 7 in the present invention, the terms D and CCF cancel out. Also, the units of measure for the fluorescence signal level (e.g., millivolts-seconds) cancel out. […] However, the amount of the indicator injected needs to be sufficiently large so that the much smaller indicator/dilution curves associated with one or two right-to-left shunts can be adequately resolved and their corresponding areas can be accurately calculated. In a preferred embodiment of the present invention involving the use of Indocyanine Green (ICG) dye (supplied, for example, by Akorn, Inc., 2500 Millbrook Drive, Buffalo Grove, Ill. 60089) as the indicator, the preferred amount of ICG dye injected is 2.0 ml at an ICG dye concentration of 2.5 milligram/ml which is equivalent to an injected ICG dose of 5.0 milligrams. The chemical name for Indocyanine Green is 1H-benz(e)indolium, 2-[7-[1,3-dihydro-1,1-dimethyl-3-(4-sulfobutyl)-2H-benz[e]indo-2-ylidene]-1,3,5-heptatrienyl]-1,1-dimethyl-3-(4-sulfobutyl)-hydroxide, inner salt, sodium, or 2-[7-[1,1-dimethyl-3-(4-sulfobutyl)benz[e]indolin-2-ylidene]-1,3,5-heptatrienyl]-1,1-dimethyl-3-(4-sulfobutyl)-1H-benz[e]indolium hydroxide, inner salt, sodium salt. A typical right-to-left shunt test procedure might involve a total of 3 to 5 tests which represents a total injected dose of 15 to 25 milligrams. […]

The conditions of series [2]: manufacturers specified guideline; cited from earlier work.
Series [3] can be described thus: Excitation and fluorescence wavelengths and signal attenuation versus tissue depth of fluorescing dyes (FIG. 2). It is filed as physicochemical. The text has this: These fluorescing dyes are excited by one wavelength of electromagnetic radiation, and emit a detectable signal at a second wavelength. Looking to FIG. 2, the excitation signal for fluorescein dye is represented at curve 30 which is an excitation signal at less than about 500 nanometers (nm). A resultant fluorescence emission from the excitation at 30 is shown at curve 32, at a wavelength of about 525 nm.
Looking to the indocyanine green dye spectrum, an excitation curve is shown at 34, having a peak excitation wavelength at about 785 nanometers. Correspondingly, the fluorescence emission from excitation at curve 34 is represented at curve 36 with a peak emission wavelength of about 830 nanometers. Directed across FIG. 2 is a curve representing the level of constant signal attenuation or absorption of about 37% resulting from passage of signal through tissue. That curve is represented at 38. Note that if a blood vessel is about one millimeter beneath the surface of skin the system would perform at about 37% of the original intensity of the excitation signal and fluorescence signal for the case of indocyanine green dye indicator. In contrast, a 37% decrease in excitation and emission signal level would result for the fluorescein dye indicator at a tissue thickness of only 0.25 mm. Since blood vessel being targeted is at least 1 mm below skin surface, the attenuation and associated signal loss would be much larger. Therefore, indocyanine green dye is preferred.
Turning again to the indocyanine green dye spectrum, note that the excitation signal 34 for ICG intersects curve 38 at a depth allowing for readily reaching blood vessels, for example within the pinna of the ear. Accordingly, indocyanine green is compatible with use as a circulatory tracking agent when detecting through skin, and indocyanine green was the indicator elected for subsequent study.

As for `CC1(C)C(/C=C/C=C/C=C/C=C2\N(CCCCS(=O)(=O)O)c3ccc4ccccc4c3C2(C)C)=[N+](CCCCS(=O)(=O)[O-])c2ccc3ccccc3c21` [ICG, 1H-benz(e)indolium, 2-[7-[1,3-dihydro-1,1-dimethyl-3-(4-sulfobutyl)-2H-benz[e]indo-2-ylidene]-1,3,5-heptatrienyl]-1,1-dimethyl-3-(4-sulfobutyl)-hydroxide, inner salt, sodium], in series [1], the “recommended ICG dose for a human subject” value is given as “about 127 milligrams”. For the same molecule, the “recommended maximum ICG dose per day” value in series [2] is listed as ≤ 2 milligrams per kilogram of body weight. Moreover, in series [3] (FIG. 2), the excitation wavelength result is “about 785 nanometers”.

Regarding `O=C1OC2(c3ccc(O)cc3Oc3cc(O)ccc32)c2ccccc21` [fluorescein], in series [3] (FIG. 2), the excitation wavelength result is “less than 500 nanometers” and the fluorescence emission wavelength result was “about 525 nm”. Besides, the “tissue thickness (depth of blood vessel beneath skin) at constant signal attenuation of about 37%” value in series [3] (excitation and fluorescence signal, FIG. 2 curve 38) was found to be 0.25 mm.
